Our source for the inhibition values is ChEMBL document CHEMBL4665648, “Potent and selective inhibitors of receptor-interacting protein kinase 1 that lack an aromatic back pocket group” (Bioorg Med Chem Lett, 2019).

Molecules are shown by their SMILES.

For experiment [1], the target named is Cyclin-dependent kinase 7/ cyclin H (Homo sapiens) (UniProt P51946+P50613). Put plainly: Inhibition of recombinant human His-tagged full length CDK7/Cyclin H expressed in baculovirus expression system using CDK7/9tide as substrate at 10 uM incubated for 60 mins by Adapta assay relative to control.
Experiment [2] concerns the target MAP kinase-interacting serine/threonine-protein kinase 2 (Homo sapiens) (UniProt Q9HBH9). Put plainly: Inhibition of tracer 236 binding to recombinant human N-terminal GST-tagged full length MKNK2 expressed in baculovirus expression system at 10 uM incubated for 60 mins by Lanthascreen assay relative to control.
The target of experiment [3] is Megakaryocyte-associated tyrosine-protein kinase (Homo sapiens) (UniProt P42679). Nature of the experiment: Inhibition of recombinant human His-tagged full length Hyl expressed in Escherichia coli expression system using Tyr 01 as substrate at 10 uM incubated for 60 mins by Z'-Lyte assay relative to control.
Sequence of Megakaryocyte-associated tyrosine-protein kinase (Homo sapiens) (P42679 whole entry): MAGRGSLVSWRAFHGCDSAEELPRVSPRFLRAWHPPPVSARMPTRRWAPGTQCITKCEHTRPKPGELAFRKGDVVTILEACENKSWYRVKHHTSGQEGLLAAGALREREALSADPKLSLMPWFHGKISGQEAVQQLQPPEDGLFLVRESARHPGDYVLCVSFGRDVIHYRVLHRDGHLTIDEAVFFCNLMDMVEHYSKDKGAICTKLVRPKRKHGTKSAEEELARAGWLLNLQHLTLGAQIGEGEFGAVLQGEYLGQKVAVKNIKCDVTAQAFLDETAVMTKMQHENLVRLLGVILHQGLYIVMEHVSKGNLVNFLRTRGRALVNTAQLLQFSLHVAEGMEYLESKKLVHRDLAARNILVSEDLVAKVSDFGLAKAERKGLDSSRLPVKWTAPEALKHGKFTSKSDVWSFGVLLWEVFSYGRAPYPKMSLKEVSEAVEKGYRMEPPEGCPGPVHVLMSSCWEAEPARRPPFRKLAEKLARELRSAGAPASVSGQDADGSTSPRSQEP
The target in experiment [4] is Tyrosine-protein kinase Lck (Homo sapiens) (UniProt P06239). Put plainly: Inhibition of recombinant human His-tagged full length LCK expressed in baculovirus expression system using Tyr 02 as substrate at 10 uM incubated for 60 mins by Z'-lyte assay relative to control.
In experiment [5] the target is Insulin-like growth factor 1 receptor (Homo sapiens) (UniProt P08069). Put plainly: Inhibition of recombinant human His-tagged IGF1R (960 to 1397 residues) expressed in baculovirus expression system using Tyr 01 as substrate at 10 uM incubated for 60 mins by Z'-Lyte assay relative to control.
In experiment [6] the target is Dual specificity protein kinase CLK4 (Homo sapiens) (UniProt Q9HAZ1). Put plainly: Inhibition of tracer 236 binding to recombinant human GST-tagged full length CLK4 expressed in baculovirus expression system at 10 uM incubated for 60 mins by Lanthascreen assay relative to control.
The target in experiment [7] is Serine/threonine-protein kinase Sgk1 (Homo sapiens) (UniProt O00141). Nature of the experiment: Inhibition of recombinant human GST-tagged full length SGK1 (60 to 431 residues) expressed in baculovirus expression system using Ser/Thr 06 as substrate at 10 uM incubated for 60 mins by Z'-Lyte assay relative to control.
Sequence of Serine/threonine-protein kinase Sgk1 (Homo sapiens) (O00141 whole entry, the tested form may be a part): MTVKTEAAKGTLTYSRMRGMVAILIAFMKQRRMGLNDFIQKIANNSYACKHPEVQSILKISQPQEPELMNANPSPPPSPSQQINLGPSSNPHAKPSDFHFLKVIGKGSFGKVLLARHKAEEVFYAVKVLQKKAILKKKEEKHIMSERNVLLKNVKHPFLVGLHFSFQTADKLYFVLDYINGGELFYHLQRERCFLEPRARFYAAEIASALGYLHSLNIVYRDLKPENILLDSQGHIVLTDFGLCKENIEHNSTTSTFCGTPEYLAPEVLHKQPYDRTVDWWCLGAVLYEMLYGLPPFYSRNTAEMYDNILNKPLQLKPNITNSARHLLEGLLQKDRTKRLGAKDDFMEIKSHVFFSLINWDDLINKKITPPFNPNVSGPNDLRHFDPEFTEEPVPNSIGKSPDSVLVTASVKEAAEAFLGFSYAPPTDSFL
Experiment [8] has as its target Inhibitor of nuclear factor kappa-B kinase subunit alpha (Homo sapiens) (UniProt O15111). Nature of the experiment: Inhibition of recombinant human His-tagged full length IKKalpha expressed in baculovirus expression system at 10 uM incubated for 60 mins by Adapta assay relative to control.
The target in experiment [9] is Ribosomal protein S6 kinase alpha-1 (Homo sapiens) (UniProt Q15418). Nature of the experiment: Inhibition of recombinant human His-tagged full length RSK1 expressed in baculovirus expression system using Ser/Thr 06 as substrate at 10 uM incubated for 60 mins by Z'-Lyte assay relative to control.
Experiment [10] addresses Casein kinase I isoform gamma-1 (Homo sapiens) (UniProt Q9HCP0). Put plainly: Inhibition of recombinant human GST-tagged full length CK1gamma1 expressed in baculovirus expression system using Ser/Thr 05 as substrate at 10 uM incubated for 60 mins by Z'-Lyte assay relative to control.
Experiment [11] deals with RAC-alpha serine/threonine-protein kinase (Homo sapiens) (UniProt P31749). Put plainly: Inhibition of recombinant human His-tagged full length AKT1 expressed in baculovirus expression system using Ser/Thr 06 as substrate at 10 uM incubated for 60 mins by Z'-Lyte assay relative to control.
Sequence of RAC-alpha serine/threonine-protein kinase (Homo sapiens) (P31749 whole entry, canonical isoform): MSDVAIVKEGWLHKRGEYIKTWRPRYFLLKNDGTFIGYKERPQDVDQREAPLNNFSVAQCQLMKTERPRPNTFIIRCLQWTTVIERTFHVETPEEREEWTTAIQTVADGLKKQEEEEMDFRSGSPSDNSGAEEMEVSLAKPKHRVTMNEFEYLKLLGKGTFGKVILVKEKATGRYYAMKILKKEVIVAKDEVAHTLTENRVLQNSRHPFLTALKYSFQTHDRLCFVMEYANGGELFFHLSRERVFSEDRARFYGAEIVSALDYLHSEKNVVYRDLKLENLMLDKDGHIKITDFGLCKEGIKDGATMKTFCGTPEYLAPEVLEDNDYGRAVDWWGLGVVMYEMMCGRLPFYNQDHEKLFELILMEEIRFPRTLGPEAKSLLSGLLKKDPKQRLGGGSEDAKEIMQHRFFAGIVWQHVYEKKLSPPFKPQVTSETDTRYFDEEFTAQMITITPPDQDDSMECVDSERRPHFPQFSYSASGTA
Experiment [12] concerns the target Phosphorylase b kinase gamma catalytic chain, skeletal muscle/heart isoform (Homo sapiens) (UniProt Q16816). Put plainly: Inhibition of recombinant human GST-tagged full length PHKG1 expressed in baculovirus expression system using Ser/Thr 07 as substrate at 10 uM incubated for 60 mins by Z'-lyte assay relative to control.
For experiment [13], the target named is Platelet-derived growth factor receptor alpha (Homo sapiens) (UniProt P16234). Put plainly: Inhibition of recombinant human GST-tagged PDGFRalpha (550 to 1089 residues) expressed in baculovirus expression system using Tyr 04 as substrate at 10 uM incubated for 60 mins by Z'-lyte assay relative to control.
Experiment [14] has as its target Serine/threonine-protein kinase Chk1 (Homo sapiens) (UniProt O14757). Nature of the experiment: Inhibition of recombinant human His-tagged full length CHK1 expressed in baculovirus expression system using Ser/Thr 19 as substrate at 10 uM incubated for 60 mins by Z'-Lyte assay relative to control.
Experiment [15] concerns the target Mitogen-activated protein kinase 11 (Homo sapiens) (UniProt Q15759). Nature of the experiment: Inhibition of recombinant human His-tagged full length p38 beta expressed in baculovirus expression system using Ser/Thr 15 as substrate at 10 uM incubated for 60 mins by Z'-Lyte assay relative to control.
Experiment [16] concerns the target Non-receptor tyrosine-protein kinase TYK2 (Homo sapiens) (UniProt P29597). Nature of the experiment: Inhibition of recombinant human N-terminal GST-tagged TYK2 (833 to 1187 residues) expressed in baculovirus expression system using Tyr 03 as substrate at 10 uM incubated for 60 mins by Z'-Lyte assay relative to control.
The target in experiment [17] is Fibroblast growth factor receptor 4 (Homo sapiens) (UniProt P22455). Put plainly: Inhibition of recombinant human His-tagged FGFR4 ([…] residues) expressed in baculovirus expression system using Tyr 04 as substrate at 10 uM incubated for 60 mins by Z'-Lyte assay relative to control.
For experiment [18], the target named is Homeodomain-interacting protein kinase 2 (Homo sapiens) (UniProt Q9H2X6). Put plainly: Inhibition of recombinant human N-terminal GST-tagged HIPK2 expressed in baculovirus expression system using Ser/Thr 09 as substrate at 10 uM incubated for 60 mins by Z'-Lyte assay relative to control.
In experiment [19] the target is Dual specificity tyrosine-phosphorylation-regulated kinase 4 (Homo sapiens) (UniProt Q9NR20). Put plainly: Inhibition of recombinant human GST-tagged full length DYRK4 expressed in baculovirus expression system using Ser/Thr 9 as substrate at 10 uM incubated for 60 mins by Z'-Lyte assay relative to control.
Sequence of Dual specificity tyrosine-phosphorylation-regulated kinase 4 (Homo sapiens) (Q9NR20 whole entry, the tested form may be a part): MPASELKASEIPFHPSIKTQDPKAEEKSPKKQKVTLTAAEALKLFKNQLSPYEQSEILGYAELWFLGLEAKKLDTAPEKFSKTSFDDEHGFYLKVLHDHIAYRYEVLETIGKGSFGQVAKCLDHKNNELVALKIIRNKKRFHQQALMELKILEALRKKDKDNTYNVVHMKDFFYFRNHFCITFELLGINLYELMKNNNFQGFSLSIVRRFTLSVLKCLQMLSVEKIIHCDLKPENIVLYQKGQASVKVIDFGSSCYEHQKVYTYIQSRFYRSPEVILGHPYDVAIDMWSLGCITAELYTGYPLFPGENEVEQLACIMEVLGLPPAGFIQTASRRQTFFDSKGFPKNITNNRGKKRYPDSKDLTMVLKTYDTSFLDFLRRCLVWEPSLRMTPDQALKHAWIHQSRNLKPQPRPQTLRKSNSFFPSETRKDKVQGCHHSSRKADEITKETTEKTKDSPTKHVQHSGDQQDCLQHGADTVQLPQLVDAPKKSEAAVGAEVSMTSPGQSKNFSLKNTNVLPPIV
Experiment [20] has as its target Tyrosine-protein kinase JAK2 (Homo sapiens) (UniProt O60674). Nature of the experiment: Inhibition of recombinant human GST-tagged JAK2 (809 to 1153 residues) expressed in baculovirus expression system using Tyr 06 as substrate at 10 uM incubated for 60 mins by Z'-lyte assay relative to control.
Experiment [21] has as its target Ephrin type-B receptor 1 (Homo sapiens) (UniProt P54762). Nature of the experiment: Inhibition of recombinant human GST-tagged EPHB1 (613 to 881 residues) expressed in baculovirus expression system using Tyr 02 as substrate at 10 uM incubated for 60 mins by Z'-Lyte assay relative to control.
Experiment [22] deals with Myotonin-protein kinase (Homo sapiens) (UniProt Q09013). Nature of the experiment: Inhibition of tracer 236 binding to recombinant human GST-tagged full length DMPK expressed in baculovirus expression system at 10 uM incubated for 60 mins by Lanthascreen assay relative to control.
Sequence of Myotonin-protein kinase (Homo sapiens) (Q09013 whole entry, the tested form may be a part): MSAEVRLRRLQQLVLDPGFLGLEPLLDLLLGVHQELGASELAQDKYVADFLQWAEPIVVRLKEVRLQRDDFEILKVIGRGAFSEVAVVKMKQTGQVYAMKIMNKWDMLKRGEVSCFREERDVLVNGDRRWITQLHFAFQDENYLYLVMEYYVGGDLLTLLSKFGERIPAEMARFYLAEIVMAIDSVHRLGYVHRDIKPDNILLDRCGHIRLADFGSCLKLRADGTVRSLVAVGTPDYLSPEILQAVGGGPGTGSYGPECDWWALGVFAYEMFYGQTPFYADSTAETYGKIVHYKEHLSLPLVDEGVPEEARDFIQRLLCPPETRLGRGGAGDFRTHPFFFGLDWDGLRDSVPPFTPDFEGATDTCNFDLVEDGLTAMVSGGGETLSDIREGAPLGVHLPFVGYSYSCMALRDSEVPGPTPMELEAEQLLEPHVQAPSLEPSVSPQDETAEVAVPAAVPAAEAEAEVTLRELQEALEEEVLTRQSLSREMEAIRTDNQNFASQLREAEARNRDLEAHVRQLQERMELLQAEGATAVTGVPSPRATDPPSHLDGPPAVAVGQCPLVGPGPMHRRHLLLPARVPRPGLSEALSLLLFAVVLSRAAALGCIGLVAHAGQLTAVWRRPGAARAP
Experiment [23] addresses Activated CDC42 kinase 1 (Homo sapiens) (UniProt Q07912). Nature of the experiment: Inhibition of tracer 236 binding to recombinant human GST-tagged TNK2 (110 to 476 residues) expressed in baculovirus expression system at 10 uM incubated for 60 mins by Lanthascreen assay relative to control.
The target of experiment [24] is Serine/threonine-protein kinase Nek6 (Homo sapiens) (UniProt Q9HC98). Put plainly: Inhibition of recombinant human GST-tagged full length NEK6 expressed in insect expression system using Ser/Thr 22 as substrate at 10 uM incubated for 60 mins by Z'-lyte assay relative to control.
Sequence of Serine/threonine-protein kinase Nek6 (Homo sapiens) (Q9HC98 whole entry): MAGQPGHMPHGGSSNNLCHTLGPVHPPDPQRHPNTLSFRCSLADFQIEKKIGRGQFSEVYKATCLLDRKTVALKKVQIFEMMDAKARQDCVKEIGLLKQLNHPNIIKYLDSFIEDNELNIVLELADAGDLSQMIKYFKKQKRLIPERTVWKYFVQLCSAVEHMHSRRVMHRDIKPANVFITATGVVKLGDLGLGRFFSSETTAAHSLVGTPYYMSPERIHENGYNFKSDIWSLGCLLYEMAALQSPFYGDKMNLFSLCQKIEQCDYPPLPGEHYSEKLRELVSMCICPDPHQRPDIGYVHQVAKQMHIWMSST

Sequence of Serine/threonine-protein kinase Chk1 (Homo sapiens) (O14757 whole entry): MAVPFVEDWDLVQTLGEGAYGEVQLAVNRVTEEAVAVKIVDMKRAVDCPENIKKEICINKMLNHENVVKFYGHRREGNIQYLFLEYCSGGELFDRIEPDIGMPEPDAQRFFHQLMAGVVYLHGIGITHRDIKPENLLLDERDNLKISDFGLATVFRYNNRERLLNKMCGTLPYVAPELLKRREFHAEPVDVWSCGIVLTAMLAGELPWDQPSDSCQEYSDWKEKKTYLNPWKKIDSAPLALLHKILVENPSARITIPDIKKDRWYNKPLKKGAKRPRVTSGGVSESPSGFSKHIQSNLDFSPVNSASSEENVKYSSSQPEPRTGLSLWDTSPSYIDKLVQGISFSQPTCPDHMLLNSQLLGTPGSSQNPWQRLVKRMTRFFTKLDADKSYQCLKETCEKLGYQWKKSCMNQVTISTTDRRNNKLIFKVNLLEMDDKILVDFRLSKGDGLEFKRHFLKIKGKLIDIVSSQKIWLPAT
Sequence of Phosphorylase b kinase gamma catalytic chain, skeletal muscle/heart isoform (Homo sapiens) (Q16816 whole entry, looked up, the tested form may be a part, canonical isoform): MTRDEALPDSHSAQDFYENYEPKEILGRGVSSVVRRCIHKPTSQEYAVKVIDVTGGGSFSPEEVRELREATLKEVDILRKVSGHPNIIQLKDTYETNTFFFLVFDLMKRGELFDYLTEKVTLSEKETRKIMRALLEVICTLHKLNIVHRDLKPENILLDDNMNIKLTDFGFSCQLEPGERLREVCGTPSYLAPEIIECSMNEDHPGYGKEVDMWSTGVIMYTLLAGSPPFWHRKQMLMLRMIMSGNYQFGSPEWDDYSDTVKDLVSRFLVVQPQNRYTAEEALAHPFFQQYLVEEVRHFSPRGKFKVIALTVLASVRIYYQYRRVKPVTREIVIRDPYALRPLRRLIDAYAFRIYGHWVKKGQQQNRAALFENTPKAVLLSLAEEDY
Sequence of Inhibitor of nuclear factor kappa-B kinase subunit alpha (Homo sapiens) (O15111 whole entry): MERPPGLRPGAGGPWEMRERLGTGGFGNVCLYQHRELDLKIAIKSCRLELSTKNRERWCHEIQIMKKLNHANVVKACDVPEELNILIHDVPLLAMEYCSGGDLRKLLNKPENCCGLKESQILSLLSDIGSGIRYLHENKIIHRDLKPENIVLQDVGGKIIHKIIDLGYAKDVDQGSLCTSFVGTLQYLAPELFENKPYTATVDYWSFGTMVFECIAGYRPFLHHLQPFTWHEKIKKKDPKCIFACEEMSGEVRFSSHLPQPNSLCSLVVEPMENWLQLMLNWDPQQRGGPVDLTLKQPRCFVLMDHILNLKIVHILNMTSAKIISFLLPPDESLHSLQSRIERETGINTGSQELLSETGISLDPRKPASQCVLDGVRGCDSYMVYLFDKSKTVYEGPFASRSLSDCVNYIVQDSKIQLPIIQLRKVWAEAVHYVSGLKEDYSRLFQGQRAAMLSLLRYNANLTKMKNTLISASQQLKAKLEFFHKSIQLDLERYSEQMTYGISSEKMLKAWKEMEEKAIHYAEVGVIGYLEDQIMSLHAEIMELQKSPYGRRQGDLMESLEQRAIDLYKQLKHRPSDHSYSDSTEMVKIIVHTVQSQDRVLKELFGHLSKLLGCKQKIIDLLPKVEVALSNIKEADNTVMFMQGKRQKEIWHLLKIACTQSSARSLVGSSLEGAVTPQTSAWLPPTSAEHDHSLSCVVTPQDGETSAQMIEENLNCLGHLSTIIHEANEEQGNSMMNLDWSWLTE
Sequence of MAP kinase-interacting serine/threonine-protein kinase 2 (Homo sapiens) (Q9HBH9 whole entry, looked up): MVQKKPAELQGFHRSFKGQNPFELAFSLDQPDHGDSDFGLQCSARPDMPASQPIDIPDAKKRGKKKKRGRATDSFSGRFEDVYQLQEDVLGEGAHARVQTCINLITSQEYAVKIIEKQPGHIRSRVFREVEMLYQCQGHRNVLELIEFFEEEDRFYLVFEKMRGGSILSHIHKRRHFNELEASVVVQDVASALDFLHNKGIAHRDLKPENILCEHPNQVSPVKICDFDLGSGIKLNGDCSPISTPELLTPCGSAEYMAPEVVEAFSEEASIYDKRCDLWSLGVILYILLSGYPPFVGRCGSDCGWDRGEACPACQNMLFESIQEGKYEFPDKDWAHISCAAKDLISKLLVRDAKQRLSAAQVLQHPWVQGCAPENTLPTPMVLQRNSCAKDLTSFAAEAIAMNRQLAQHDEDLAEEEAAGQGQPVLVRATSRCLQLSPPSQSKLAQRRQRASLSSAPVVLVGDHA

For `CN1C(=O)[C@@H](NC(=O)c2n[nH]c3ncc(C(F)(F)C(F)(F)F)cc23)COc2ccccc21`, the inhibition in [1] is 14.5%; in experiment [2] it was 1%; in experiment [3], 3.5%; in experiment [4], -0.5%; in experiment [5], -0.5%; in experiment [6] it was 18%. The inhibition in experiment [7] is 3%; in experiment [8], -4%; in experiment [9], 8%; in experiment [10], 5%; in experiment [11], -0.5%; in [12], 9%. The inhibition in experiment [13] is 2.5%; in [14], -1%; in experiment [15] it was 9%; in [16], 5.5%; in experiment [17], -7%; in [18], 7%. Further, the inhibition in experiment [19] was 4.5%; in experiment [20], 0%; in experiment [21], 2%; in experiment [22] it was -1%; in experiment [23], 1.5%; in experiment [24], 4%.
